Results reported in the supplement of paper PMC8671470.

What was measured:
Conditions in all cases: 72 h
HL-60 [1] = test: cell viability (% survival relative to DMSO control, bortezomib = 0%); higher = less cytotoxic
Outline: (§1)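 Percent survival is reported as the mean of duplicate wells. Cells from 10 AML and 5 CML lines were plated in 384-well plates containing compounds at 1, 10, 100, 1000 or 10000 nM and kept for 72 h at 37 °C in 5% CO2. Readout used CellTiter-Glo luminescence, scaled so that vehicle equals 100% and a 10 µM positive control equals 0%.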

BV-173 [2] = test: as above
Outline: as §1

ML-2 [3] = test: as above
Outline: as §1

Mono-Mac-6 [4] = test: as above
Outline: as §1

THP-1 [5] = test: as above
Outline: as §1

KU-812 [6] = test: as above
Outline: as §1

SHI-1 [7] = test: as above
Outline: as §1

MV4-11 [8] = test: as above
Outline: as §1

K-562 [9] = test: as above
Outline: as §1

KCL-22 [10] = test: as above
Outline: as §1

NOMO-1 [11] = test: as above
Outline: as §1

HEL [12] = test: as above
Outline: as §1

MOLM-13 [13] = test: as above
Outline: as §1

KG-1 [14] = test: as above
Outline: as §1

HL-60 [15] = test system: HL-60
Outline: (§2)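 For the IC50, dose–response curves were fitted with a log-logistic model. The data came from fifteen myeloid leukaemia cell lines grown in RPMI 1640 at densities in the linear growth range and incubated in 384-well plates for 72 h at 37 °C under 5% CO2. Doses were five tenfold steps from 1 to 10,000 nM in duplicate, and luminescent ATP viability was normalised to vehicle and to a positive control at 10 µM before four-parameter fitting.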

BV-173 [16] = test system: BV-173
Outline: as §2

ML-2 [17] = test system: ML-2
Outline: as §2

Mono-Mac-6 [18] = test system: Mono-Mac-6
Outline: as §2

THP-1 [19] = test system: THP-1
Outline: as §2

KU-812 [20] = test system: KU-812
Outline: as §2

SHI-1 [21] = test system: SHI-1
Outline: as §2

MV4-11 [22] = test system: MV4-11
Outline: as §2

K-562 [23] = test system: K-562
Outline: as §2

KCL-22 [24] = test system: KCL-22
Outline: as §2

NOMO-1 [25] = test system: NOMO-1
Outline: as §2

HEL [26] = test system: HEL
Outline: as §2

MOLM-13 [27] = test system: MOLM-13
Outline: as §2

LAMA-84 = test system: LAMA-84
Outline: as §2

KG-1 [28] = test system: KG-1
Outline: as §2

HL-60 [29] = test: area under dose-response curve (viability, 1 nM-10 uM) (fraction (0-1)); higher = more sensitive
Outline: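 In 384-well plates, the full library was rescreened in duplicate on HL-60 cells in RPMI 1640 with 10% FBS, at 1–10,000 nM in five tenfold concentrations, for 72 h at 37 °C, 5% CO2. Each run also held DMSO or 100 nM of one of three metabolic inhibitors. Viability was measured by CellTiter-Glo and normalised to DMSO wells and to wells with proteasome inhibitor, present at 10 μM. Any area under the curve comes from four-parameter log-logistic fitting with drc and PharmacoGx.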

N#CC(C#N)=NNc1ccc(OC(F)(F)F)cc1 [FCCP]
Conditions | area under dose-response curve, co-treatment: AZD3965 100 nM | area under dose-response curve, co-treatment: DMSO vehicle | area under dose-response curve, co-treatment: GSK2194069 100 nM | area under dose-response curve, co-treatment: pictilisib 100 nM | cell viability, 1 nM [%] | cell viability, 10 nM [%] | cell viability, 100 nM [%] | cell viability, 1000 nM [%] | cell viability, 10000 nM [%]
BV-173 [2] | – | – | – | – | 119 | 94.9 | 96.7 | 82 | -0.482
HEL [12] | – | – | – | – | 120 | 94.1 | 92.7 | 79.9 | 1.52
HL-60 [1] | – | – | – | – | 88.2 | 92.4 | 109 | 88.5 | 0.501
HL-60 [29] | 0.104 | 0.106 | 0.0946 | 0.107 | – | – | – | – | –
K-562 [9] | – | – | – | – | 109 | 93.4 | 92.1 | 74 | 1.97
KCL-22 [10] | – | – | – | – | 110 | 83.6 | 85.8 | 68.3 | 4.51
KG-1 [14] | – | – | – | – | 101 | 101 | 94.7 | 80.8 | 7.07
KU-812 [6] | – | – | – | – | 108 | 98 | 92.4 | 65.7 | 0.082
ML-2 [3] | – | – | – | – | 104 | 96.5 | 105 | 82.3 | 0.124
MOLM-13 [13] | – | – | – | – | 121 | 92.6 | 99.3 | 82.7 | 0.459
MV4-11 [8] | – | – | – | – | 104 | 101 | 98.9 | 88.5 | -1.01
Mono-Mac-6 [4] | – | – | – | – | 100 | 92 | 96.1 | 82.8 | 3.03
NOMO-1 [11] | – | – | – | – | 100 | 105 | 102 | 93.5 | 4.3
SHI-1 [7] | – | – | – | – | 94.6 | 103 | 101 | 91.5 | 35.1
THP-1 [5] | – | – | – | – | 104 | 94.3 | 102 | 102 | 7.73

Conditions | IC50 (cell viability) [µM]
BV-173 [16] | 2.05
HEL [26] | 1.96
HL-60 [15] | 2.66
K-562 [23] | 1.73
KCL-22 [24] | 1.82
KG-1 [28] | 2.34
KU-812 [20] | 1.39
LAMA-84 | 2.01
ML-2 [17] | 2.09
MOLM-13 [27] | 2.11
MV4-11 [22] | 2.44
Mono-Mac-6 [18] | 2.38
NOMO-1 [25] | 3.01
SHI-1 [21] | 4.02
THP-1 [19] | 3.77

COc1ccc(-c2ccccc2)cc1NS(=O)(=O)c1cc(Cl)cc(Cl)c1O
Conditions | area under dose-response curve, co-treatment: AZD3965 100 nM | area under dose-response curve, co-treatment: DMSO vehicle | area under dose-response curve, co-treatment: GSK2194069 100 nM | area under dose-response curve, co-treatment: pictilisib 100 nM | cell viability, 1 nM [%] | cell viability, 10 nM [%] | cell viability, 100 nM [%] | cell viability, 1000 nM [%] | cell viability, 10000 nM [%]
BV-173 [2] | – | – | – | – | 98.9 | 90 | 119 | 87.1 | 94.6
HEL [12] | – | – | – | – | 106 | 87.4 | 115 | 74 | 95.3
HL-60 [1] | – | – | – | – | 88.3 | 77.6 | 100 | 25.6 | 95.9
HL-60 [29] | < 0.0301 | < 0.0301 | < 0.0301 | < 0.0301 | – | – | – | – | –
K-562 [9] | – | – | – | – | 86.8 | 105 | 126 | 87.9 | 86.9
KCL-22 [10] | – | – | – | – | 90 | 92.8 | 108 | 93.7 | 97.7
KG-1 [14] | – | – | – | – | 98.1 | 96.4 | 108 | 83.8 | 99.2
KU-812 [6] | – | – | – | – | 98.2 | 84.4 | 105 | 95.6 | 104
ML-2 [3] | – | – | – | – | 99.8 | 102 | 102 | 84.5 | 97.7
MOLM-13 [13] | – | – | – | – | 101 | 117 | 113 | 81 | 111
MV4-11 [8] | – | – | – | – | 98.8 | 96.1 | 117 | 86.3 | 98.3
Mono-Mac-6 [4] | – | – | – | – | 102 | 86.8 | 97.8 | 90.2 | 90.7
NOMO-1 [11] | – | – | – | – | 102 | 96 | 107 | 92.7 | 99
SHI-1 [7] | – | – | – | – | 95.9 | 101 | 105 | 82.2 | 113
THP-1 [5] | – | – | – | – | 101 | 98.4 | 101 | 85.5 | 99.9

Conditions | IC50 (cell viability) [µM]
BV-173 [16] | > 10
HEL [26] | > 10
HL-60 [15] | > 10
K-562 [23] | > 10
KCL-22 [24] | > 10
KG-1 [28] | > 10
KU-812 [20] | > 10
LAMA-84 | > 10
ML-2 [17] | > 10
MOLM-13 [27] | > 10
MV4-11 [22] | > 10
Mono-Mac-6 [18] | > 10
NOMO-1 [25] | > 10
SHI-1 [21] | > 10
THP-1 [19] | > 10

COc1ccc2c(C(=S)N(C)CC(=O)O)cccc2c1C(F)(F)F [Tolrestat]
Conditions | area under dose-response curve, co-treatment: AZD3965 100 nM | area under dose-response curve, co-treatment: DMSO vehicle | area under dose-response curve, co-treatment: GSK2194069 100 nM | area under dose-response curve, co-treatment: pictilisib 100 nM | cell viability, 1 nM [%] | cell viability, 10 nM [%] | cell viability, 100 nM [%] | cell viability, 1000 nM [%] | cell viability, 10000 nM [%]
BV-173 [2] | – | – | – | – | 84.3 | 108 | 86.1 | 88.5 | 101
HEL [12] | – | – | – | – | 91.2 | 98.9 | 95 | 93 | 101
HL-60 [1] | – | – | – | – | 107 | 104 | 122 | 49.1 | 101
HL-60 [29] | < 0.0301 | < 0.0301 | < 0.0301 | < 0.0301 | – | – | – | – | –
K-562 [9] | – | – | – | – | 95.4 | 104 | 87.4 | 99.8 | 105
KCL-22 [10] | – | – | – | – | 94.8 | 103 | 105 | 106 | 106
KG-1 [14] | – | – | – | – | 91.8 | 95.3 | 95.6 | 93.5 | 101
KU-812 [6] | – | – | – | – | 88.6 | 118 | 99.8 | 90.8 | 104
ML-2 [3] | – | – | – | – | 90.2 | 99 | 103 | 111 | 97.8
MOLM-13 [13] | – | – | – | – | 105 | 149 | 63.3 | 105 | 88.5
MV4-11 [8] | – | – | – | – | 97.4 | 109 | 98.2 | 101 | 86.3
Mono-Mac-6 [4] | – | – | – | – | 86.5 | 113 | 94.1 | 113 | 95.4
NOMO-1 [11] | – | – | – | – | 97.2 | 107 | 106 | 118 | 95.5
SHI-1 [7] | – | – | – | – | 98.6 | 104 | 88.1 | 108 | 101
THP-1 [5] | – | – | – | – | 93.9 | 94.8 | 103 | 104 | 94.4

Conditions | IC50 (cell viability) [µM]
BV-173 [16] | > 10
HEL [26] | > 10
HL-60 [15] | > 10
K-562 [23] | > 10
KCL-22 [24] | > 10
KG-1 [28] | > 10
KU-812 [20] | > 10
LAMA-84 | > 10
ML-2 [17] | > 10
MOLM-13 [27] | > 10
MV4-11 [22] | > 10
Mono-Mac-6 [18] | > 10
NOMO-1 [25] | > 10
SHI-1 [21] | > 10
THP-1 [19] | > 10
